Source: patent US10030016B2 (Sunesis Pharmaceuticals, Inc., priority 2009, dated 2018)
Where a name gives a salt, the structure may show the parent alone. Read-outs that look alike come from different tables or passages of the source.

Key:
[1] = test system: phospho-akt (Thr308) in PC-3 cells; assay: Inhibition of phospho-akt (Thr308) in PC-3 cells, MSD phospho-akt 308 ELISA kit; type: cell-based; settings: Homo sapiens, 2 hours, no serum, read-out: EC50
In short: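 Read-out is MSD electrochemiluminescence of Akt phosphorylated at Thr308 in lysates of PC-3 cells treated 2 h with compound in serum-free medium. Wortmannin at 5 μM defined the low control and DMSO the high control.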

PDK1 = PDK1 (Homo sapiens (Human), UniProt O15530); assay: PDK1 kinase assay (coupled PDK1/AKT/FAM-crosstide assay, IMAP fluorescence polarization); type: biochemical
Chain of PDK1 (O15530 51-359): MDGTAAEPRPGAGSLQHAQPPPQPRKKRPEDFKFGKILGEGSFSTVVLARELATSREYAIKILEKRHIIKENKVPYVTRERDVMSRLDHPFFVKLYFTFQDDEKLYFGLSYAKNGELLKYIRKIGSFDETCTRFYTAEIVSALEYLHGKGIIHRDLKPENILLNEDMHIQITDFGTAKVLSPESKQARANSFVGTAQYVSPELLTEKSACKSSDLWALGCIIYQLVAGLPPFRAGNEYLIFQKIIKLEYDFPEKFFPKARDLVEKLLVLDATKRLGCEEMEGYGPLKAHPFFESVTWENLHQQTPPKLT
In short: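 PDK1 activity is measured indirectly through activation of a PIFtide-fused AKT2 construct that phosphorylates FAM-crosstide (100 nM). The reaction uses 0.75 nM PDK1, 40 μM ATP, 30 min, 25° C, with IMAP polarization detection.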

[2] = inhibition of P308 Akt in PC-3 cells, MSD
[3] = inhibition of phospo-PDK1 in vitro
[4] = inhibition of P308 Akt in PC-3 cells using MSD

Row | SMILES | EC50 [1, 2] [nM] | IC50 (PDK1; [3]) [nM] | EC50 ([1]; PC-3, 2 h, inhibition of P308 Akt in PC-3 cells using MSD) [nM] | IC50 (PDK1; inhibition of PDK1 in vitro) [nM] | EC50 [1, 4] [nM]
1 | C[C@H](NC(=O)c1nc(C#N)cnc1NCc1ccc(-c2cnc(N)c(CCC3CCNC3)n2)cc1)c1ccc(F)c(F)c1 (single isomer, unassigned) [Example 79] |  |  | < 1000 | < 100 | 
2 | C[C@H](NC(=O)c1cc(C#N)cnc1NCc1ccc(-c2cnc(N)c(C(=O)NCCO)n2)cc1)c1ccc(F)cc1 [Example 215, (S)-3-amino-6-(4-((5-cyano-3-(1-(4-fluorophenyl)ethylcarbamoyl)pyridin-2-ylamino)methyl)phenyl)-N-(2-hydroxyethyl) pyrazine-2-carboxamide] |  |  |  | < 100 | < 1000
3 | C[C@H](NC(=O)c1cc(C#N)cnc1NCc1ccc(-c2cnc(N)c(C(=O)NCCN3CCOCC3)n2)cc1)c1ccc(F)cc1 [Example 214, (S)-3-amino-6-(4-((5-cyano-3-(1-(4-fluorophenyl)ethylcarbamoyl)pyridin-2-ylamino)methyl)phenyl)-N-(2-morpholinoethyl) pyrazine-2-carboxamide] |  |  |  | < 100 | < 1000
4 | O=C1Nc2cc(OCCNc3ncccc3C(=O)NCc3ccc(F)cc3)ccc2/C1=C/c1cnc[nH]1 [Example 23, (Z)-2-(2-(3-((1H-imidazol-5-yl)methylene)-2-oxoindolin-6-yloxy)ethylamino)-N-(4-fluorobenzyl)nicotinamide] | < 1000 | < 100 |  |  | 
5 | C[C@H](NC(=O)c1cccnc1NC/C=C/c1ccc2c(c1)NC(=O)/C2=C\c1cnc[nH]1)c1ccc(F)cc1 [Example 15.22, 2-((E)-3-((Z)-3-((1H-imidazol-5-yl)methylene)-2-oxoindolin-6-yl)allylamino)-N-((S)-1-(4-fluorophenyl)ethyl) nicotinamide] | < 1000 | < 100 |  |  | 
6 | C[C@H](NC(=O)c1nc(C#N)cnc1NCc1ccc(-c2cnc3[nH]ncc3c2)cc1)c1ccc(F)c(F)c1 [Example 390, 6-Cyano-3-[4-(1H-pyrazolo [3,4-b]pyridin-5-yl)-benzylamino]-pyrazine-2-carboxylic acid [(S)-1-(3,4-difluoro-phenyl)-ethyl]-amide] |  |  |  | < 100 | < 1000
7 | Cc1nc(/C=C2\C(=O)Nc3cc(/C=C/CNc4ncccc4C(=O)NCc4ccc(F)c(F)c4)ccc32)[nH]c1C [Example 15.13, N-(3,4-Difluoro-benzyl)-2-((E)-3-{3-[1-(4,5-dimethyl-1H-imidazol-2-yl)-meth-(Z)-ylidene]-2-oxo-2,3-dihydro-1H-indol-6-yl}-allylamino)-nicotinamide] | 1000 to 10000 | < 100 |  |  | 
8 | Nc1n[nH]c2ncc(-c3ccc(CNc4ncc(C(F)(F)F)cc4C(=O)NCc4ccc(F)c(F)c4)cc3)cc12 [Example 132, 2-(4-(3-amino-1H-pyrazolo [3,4-b]pyridin-5-yl)benzylamino)-N-(3,4-difluorobenzyl)-5-(trifluoromethyl) nicotinamide] |  |  |  | < 100 | < 1000
9 | COc1ccc([C@H](COc2ccc(N)c(N)c2)Nc2ncccc2C(=O)N[C@@H](C)c2ccc(F)c(F)c2)cc1 [Example 16.6, 2-((R)-2-(3,4-diaminophenoxy)-1-(4-methoxyphenyl)ethylamino)-N-((S)-1-(3,4-difluorophenyl)ethyl)nicotinamide] | > 10000 | > 5000 |  |  | 
10 | CNc1ncc2cc(C#CCNc3ncc(C(F)(F)F)cc3C(=O)NCc3ccc(F)c(F)c3)ccc2n1 [Example 256, N-(3,4-difluorobenzyl)-2-(2-(2-(methylamino)quinazolin-6-yl)prop-2-ynylamino)-5-(trifluoromethyl)nicotinamide] |  |  |  | < 100 | 1000 to 10000
11 | O=C(Nc1ccc(F)cc1)c1cc(C(F)(F)F)cnc1NCc1ccc(-c2cnc3[nH]ncc3c2)cc1 [Example 156, 2-(4-(1H-pyrazolo[3,4-b]pyridin-5-yl)benzylamino)-N-(4-fluorophenyl)-5-(trifluoromethyl)nicotinamide] |  |  |  | < 100 | < 1000
12 | C[C@H](NC(=O)c1cc(C#N)cnc1NCc1ccc(-c2cnc(Nc3ccn(C)n3)nc2)cc1)c1ccc(F)cc1 [Example 125, (S)-5-cyano-N-(1-(4-fluorophenyl)ethyl)-2-(4-(2-(1-methyl-1H-pyrazol-3-ylamino)pyrimidin-5-yl)benzylamino) nicotinamide] |  |  |  | < 100 | 1000 to 10000
13 | C[C@H](NC(=O)c1cc(C#N)cnc1NCc1ccc(-c2cnc(N)c(C3=CCNCC3)n2)cc1)c1ccc(F)cc1 [Example 233, 2-{4-[5-Amino-6-(1,2,3,6-tetrahydro-pyridin-4-yl)-pyrazin-2-yl]-benzylamino}-5-cyano-N-[(S)-1-(4-fluoro-phenyl)-ethyl]-nicotinamide] |  |  |  | < 100 | < 1000
14 | O=C(NCc1ccc(F)c(F)c1)c1cccnc1NCc1csc(-c2c[nH]c3ncncc23)n1 [Ex. 6.13, N-(3,4-difluorobenzyl)-2-({[2-(7H-pyrrolo[2,3-d]pyrimidin-5-yl)-1,3-thiazol-4-yl]-methyl}amino) pyridine-3-carboxamide] | > 10000 | 100 to 1000 |  |  | 

Second part, the compound after the results:

Row | EC50 [1, 2] [nM] | IC50 (PDK1; [3]) [nM] | EC50 ([1]; PC-3, 2 h, inhibition of P308 Akt in PC-3 cells using MSD) [nM] | IC50 (PDK1; inhibition of PDK1 in vitro) [nM] | EC50 [1, 4] [nM] | SMILES
15 | > 10000 | < 100 |  |  |  | Nc1ncnc2ccc(-c3ccc(CNc4ncc(C(F)(F)F)nc4C(=O)NCc4ccc(F)c(F)c4)s3)cc12 [Example 10.10, 3-(((5-(4-aminoquinazolin-6-yl)thiophen-2-yl)methyl)amino)-N-(3,4-difluorobenzyl)-6-(trifluoromethyl)pyrazine-2-carboxamide]
16 | < 1000 | 100 to 1000 |  |  |  | C[C@H](NC(=O)c1cccnc1NCc1ccc(-c2ccc3ncc4ncn(C)c4c3c2)s1)c1ccc(F)cc1 [Example 2.18]
17 |  |  |  | < 100 | < 1000 | Nc1cnc(-c2ccc(CNc3ncc(C(F)(F)F)cc3C(=O)Nc3ccc(F)cc3)cc2)cn1 [Example 155, 2-(4-(5-aminopyrazin-2-yl)benzylamino)-N-(4-fluorophenyl)-5-(trifluoromethyl)nicotinamide]
18 | > 10000 | > 5000 |  |  |  | Nc1ncnc2ccc(-c3ccc(CNc4ncccc4C(=O)Nc4cccc(C(F)(F)F)c4)s3)cc12 [Example 3.53, 2-({[5-(4-aminoquinazolin-6-yl)thiophen-2-yl]methyl}amino)-N-[3-(trifluoromethyl)phenyl]pyridine-3-carboxamide (TFA salt)]
19 |  |  |  | < 100 | 1000 to 10000 | Nc1cccc(-c2nc(-c3ccc(CNc4ncc(C(F)(F)F)cc4C(=O)Nc4ccc(F)cc4)cc3)cnc2N)c1 [Example 239, 2-{4-[5-Amino-6-(3-amino-phenyl)-pyrazin-2-yl]-benzylamino}-N-(4-fluoro-phenyl)-5-trifluoromethyl-nicotinamide]
20 | > 10000 | 1000 to 5000 |  |  |  | C[C@H](NC(=O)c1cccnc1NCc1ccc(-c2ccc3ncnn3c2)s1)c1ccc(F)cc1 [Example 2.4, N-[(1S)-1-(4-fluorophenyl)ethyl]-2-({[5-([1,2,4]triazolo[1,5-a]pyridin-6-yl)thiophen-2-yl]methyl}amino)pyridine-3-carboxamide]
21 | < 1000 | < 100 |  |  |  | Nc1ncnc2[nH]cc(-c3ccc(CNc4ncccc4C(=O)NCc4ccc(F)c(F)c4)s3)c12 [Example 4.8, 2-(((5-(4-amino-7H-pyrrolo[2,3-d]pyrimidin-5-yl)thiophen-2-yl)methyl)amino)-N-(3,4-difluorobenzyl)nicotinamide]
